# Assay results as given in patent US12403106B2, “Prophylactic skin treatment for radiation therapy” (THE BOARD OF TRUSTEES OF THE LELAND STANFORD JUNIOR …, priority 2019, dated 2025).
# Key:
# irradiated scalp = experiment: Laser Doppler analysis of perfusion of irradiated scalp, DFO injection (Example 1); format: in vivo, mice; conditions: mean±SE
# Experimental: (§1) Adult 60-day-old male Cr1:NU-Fox1NU immunocompromised mice were used for experiments in this study. Twelve mice were treated with a total of 30 Gy external beam radiation, delivered as six fractionated doses of 5 Gy each over 12 days, followed by 5 weeks of recovery. An additional six non-irradiated mice were used as healthy controls for laser Doppler analysis (LDA) and skin analysis. Irradiated mice were divided into two treatment groups: a DFO experimental group and saline control group. Following recovery, mice underwent injection of either DFO (1 mg in 100 μl saline) or 100 μl of saline alone beneath the dermis every other day for a total of seven treatments.
# Laser Doppler Analysis (“LDA”) was performed to measure perfusion at the irradiated site using a Perimed PIM 3 laser Doppler perfusion imager (Datavagen, Sweden). The signal generated by the LDA, laser Doppler perfusion index (LDPI), was used for comparative purposes. LDPI is a product of the blood cell velocity and concentration and is represented by a color spectrum, with black/dark blue representing low perfusion and red representing high perfusion. LDA was performed prior to irradiation, following completion of irradiation and recovery, and then twenty-four hours following each treatment with DFO or saline. […]
# Five images were taken of each mouse, and the average LDPI of the five images was recorded. […]
# fat grafts = experiment: Fat graft volume retention by micro-CT in DFO preconditioned irradiated scalp (Example 1); format: in vivo; conditions: DFO preconditioned irradiated mice, mean±SE
# Experimental: as §1
# After irradiation, fat grafting was performed on the irradiated mice. After informed consent was obtained, lipoaspirate was obtained from three healthy donors, with no other medical co-morbidities under an approved IRB protocol #2188.
# Lipoaspirate was allowed to settle for 15 minutes for layers to separate by gravity sedimentation, and then oil and blood layers were removed by vacuum aspiration. The remaining fat layer was centrifuged at 1300 ref for 3 minutes at 4° C. Any remaining oil and blood was again removed and the remaining fat was transferred into lee syringes for injection through a 14-gauge needle. Fat grafting was performed beneath the scalp by creating a subcutaneous tunnel with the needle and then injecting […] of lipoaspirate in retrograde fashion while pulling the needle out.
# Mice were also imaged using a MicroCAT-11 in vivo X-Ray micro-CT scanner (Imtek, Inc.; Knoxville, Tenn.) two days after fat graft injection for baseline volume measurements. Fat graft volume retention was then analyzed every two weeks over a total of 8 weeks using microcomputed tomography, and images were reconstructed as three-dimensional surfaces through cubic-spline interpolation. All reconstructions were performed by a single investigator to avoid inter-observer variability.
compound,measurement,setting,value
"CC(=O)N(O)CCCCCNC(=O)CCC(=O)N(O)CCCCCNC(=O)CCC(=O)N(O)CCCCCN [DFO, deferoxamine]",laser Doppler perfusion index at the scalp,"irradiated scalp; 30 Gy irradiated scalp, 1 mg DFO injected beneath the dermis every other day, after four treatments",205.08±2.30 LDPI
same,laser Doppler perfusion index following fat grafting,"irradiated scalp; two weeks following injection of fat grafts, DFO preconditioned mice",86.33±2.00 LDPI
same,fat graft volume retention,fat grafts; two weeks after fat grafting,89.24%
same,fat graft volume retention,fat grafts; week 6 after fat grafting,73.17%
same,fat graft volume retention,fat grafts; week 8 after fat grafting,71.75%
